Assay results taken from patent publication US20100204460A1, “NATURAL BRASSINOSTEROIDS FOR USE FOR TREATING HYPERPROLIFERATION, TREATING PROLIFERATIVE DISEASES AND REDUCING ADVERSE EFFECTS OF STEROID DYSFUNCTION IN MAMMALS, PHARMACEUTICAL COMPOSITION AND ITS USE” (priority 2007, published 2010).
Entries after “also recorded” stand apart in the source; their conditions may differ.

Key:
Format in all cases: cell-based
[1] = test system: multiple myeloma cell line RPMI 8226; experiment: Calcein AM cytotoxicity assay, RPMI 8226; details: RPMI 8226; exposure 72 h (b71 says 96 h); mean ± SD; read-out: IC50 assessed by Calcein AM assay of surviving cells
DU-145 cells = experiment: Cell cycle distribution by flow cytometry, DU-145; details: IC50, 24 h; for Cell cycle distribution S: control 15%; for Apoptosis subG1 fraction: control 20%; for Cell cycle distribution G2/M: control 23%; for Cell cycle distribution G1: control 62%
Text: (§1) In the MCF-7 breast cancer cell line that has been the most widely studied experimental cell system, the typical growth inhibitory response to antiestrogens is decrease in the proportion of cells synthesising DNA (S phase) after antiestrogen treatment. This decrease in S phase coincides with an increase in the proportion of cells in G0/G1 phase. The activity of the androgen receptor (AR) is also regulated by alterations in cell signaling. There has been reported ligand independent activation of AR in prostate cancer cells by different growth factors. As the AR can be activated in the absence of hormone, it appears that the conditions may be more restricted than those observed for ER. Use of physiologic doses of ligand (dihydrotestosterone, DHT) is of importance as the LNCaP cells proliferate only at DHT concentration of 10^−9 M or lower. […] In contrast to proliferation, transactivation of AR specific target genes (e.g. PSA) continues to increase with DHT doses of 10^−10 M and higher. It might be accepted for estrogen or androgen receptors as stronger cytotoxic activities of brassinosteroids 9 or 6 on hormone-sensitive (MCF-7, LNCaP) compared to hormone-insensitive (MDA-MB-468, DU-145) cell lines were found. Therefore we explored the possibility of cell cycle perturbation by BRs in different cancer cell lines. Flow cytometry was used to evaluate the number of cells in the particular phases of the cell cycle, including subG1 peak detection. Control and treated cells were washed twice with cold PBS and centrifuged at 360×g for 10 min at 4° C., and fixed with chilled ethanol (70%; v/v) by low-speeded vortexing. For detection of DNA content analysis, propidium iodide staining was used. The cells were analyzed using a FACSCalibur flow cytometer (BD Biosciences, San Jose, Calif.).
(§2) Flow-cytometric detection of apoptosis. Several studies have declared that the induction of apoptosis may be cell cycle-dependent. Therefore, in our next series of experiments, we tested if brassinosteroids 9 or 6 cause apoptosis of the breast and prostate cancer cells via cell cycle blockage. From this reason we carried out DNA cell cycle analysis by flow cytometry based on detection of endonucleolytic DNA degradation that results in extraction of low molecular weight DNA from the cells. […] The subG1 peak containing apoptotic bodies was however not observed in MCF-7 cells.

MDA-MB-468 cells = experiment: Western blot of cell cycle and apoptosis related proteins, MDA-MB-468; details: for expression of apoptosis related proteins (Bcl-2 family, caspase-3 activation) (Western blot) / p21Waf1/Cip1 expression (Western blot) / p27Kip1 expression (Western blot): IC50 for 6, 12, 24 h vs untreated control; for retinoblastoma protein (Rb) expression, phosphorylated and dephosphorylated forms (Western blot): vs untreated control
Description: (§3) The cells were seeded in a density 1.6×10^4 cells/cm^2 (LNCaP), 1.4×10^4 cells/cm^2 (DU-145, MDA-MB-468 and MCF-7) using culture medium in 100-mm culture Petri dishes. After reaching of 70-80% confluence, the cells were treated with tested compounds 9 in concentration IC50 that were evaluated by MTT analysis described above. DMSO was used as a vehicle for controls. After 6, 12 and 24 h treatment, the cells were washed with cold PBS and scraped in ice-cold protein extract ion buffer (50 mM HEPES, pH 7.5; 150 mM NaCl; 1 mM EDTA; 2.5 mM EGTA; 10% glycerol; 0.1% Tween 20) with protease and phosphatase inhibitors (25 μL/mL phenylmethanesulphonyl fluoride; 2.5 μL/mL leupeptin; 0.1 mM Na3VO4; 2.5 μL/mL aprotinin; 10 mM β-glycerol-phosphate; 1 mM dithiothreitol). The lysates were collected into microfuge tube and incubated on ice for 1 h. Cells were incubated 60 min at 4° C. under time by time shaking in protein extraction buffer. After centrifugation at 45 000×g for 30 min at 4° C., supernatant was collected, aliquoted, and stored at −80° C. The protein content in the lysates was measured by a Bredford assay (Bio-Rad Laboratories, Hercules, Calif., USA) according to the manufacture's protocol.
(§4) For Western blot analysis, equal aliquots of proteins (15-30 μg/well) were loaded on 10% or 12% SDS-PAGE gels and transferred onto nitrocellulose membranes (Amersham Biosciences, Vienna, Austria) by semi-dry electrophoretic transfer. Coloured marker (Rainbow™, Amersham Biosciences, Vienna, Austria) was used as a protein molecular weight standard. The non-specific binding sites were blocked by incubating the blot with 5% (w/v) non-fat dry milk in PBS for 2 h. The blot was incubated overnight in 4° C. with appropriate primary antibody that detects the protein epitope of interest and finally washed in PBS with 0.1% Tween 20 for 1 h. The blot was incubated with the diluted secondary goat anti-mouse IgG-horseradish peroxidase conjugated antibody (dilution 1:6000, Santa Cruz Biotechnology, Santa Cruz, Calif., USA) or goat anti-rabbit IgG-horseradish peroxidase conjugated antibody (dilution 1:2000, DakoCytomation, Glostrup, Denmark) for 45 min in 4° C. The membrane was washed in PBS with 0.1% Tween 20 for 1 h. The proteins were detected using a chemiluminescence detection system (Amersham Biosciences, Vienna, Austria) according to the protocol provided by the manufacturer. Equality of loaded proteins was confirmed by Ponceau S membrane staining (Sigma, St. Louis, Mo., USA) and by detection of anti-tubulin-α or anti-mcm-7 antibodies. The experiments were repeated three times. The protein expressions in treated cells were compared to untreated controls.
(§5) Western blot analysis was used to detect changes in apoptosis related protein expression in breast and prostate cancer cell lines. […] This decreased expression of Bid can indicate a cleavage of the protein after treatment by BRs. In DU-145 cell line, expression of pro-apoptotic proteins Bax and Bid was unchanged. […] On the other hand, caspase cleavage was not found in DU-145 cells. Poly-(ADP-ribose) polymerase (PARP) positive expression in controls of prostate cancer cell lines was observed but brassinosteroids had no effect on its expression nor on its degradation within the period 6/12/24 h (FIG. 6B).

LNCaP cells = experiment: Western blot of cell cycle and apoptosis related proteins, LNCaP; details: IC50 for 6, 12, 24 h vs untreated control
Description: as §3, §4, §5

MCF-7 cells = experiment: Cell cycle distribution by flow cytometry, MCF-7; details: IC50, 24 h; for Cell cycle distribution S: control 14%; for Apoptosis subG1 fraction: control 17%; for Cell cycle distribution G2/M: control 26%; for Cell cycle distribution G1: control 60%
Text: as §1, §2

CC[C@@H](C(C)C)[C@@H](O)[C@H](O)[C@@H](C)[C@H]1CC[C@H]2[C@@H]3CC(=O)[C@H]4C[C@H](O)[C@H](O)C[C@]4(C)[C@H]3CC[C@]12C [Brassinosteroid 9, 28-Homocastasterone]
IC50 [1]: 26 ± 1.4 µM | Cell cycle distribution S (DU-145 cells): 8% | Apoptosis subG1 fraction (DU-145 cells): 28% | Cell cycle distribution G2/M (DU-145 cells): 46% | Cell cycle distribution G1 (DU-145 cells): 46% | expression of apoptosis related proteins (Bcl-2 family, caspase-3 activation) (Western blot) (MDA-MB-468 cells): no significant changes in expression of Bcl-2 family protein nor caspase-3 activation | p21Waf1/Cip1 expression (Western blot) (MDA-MB-468 cells): no significant changes | p27Kip1 expression (Western blot) (MDA-MB-468 cells): no significant changes | retinoblastoma protein (Rb) expression, phosphorylated and dephosphorylated forms (Western blot) (MDA-MB-468 cells): decreased | MDM-2 expression (Western blot) (LNCaP cells): increased after 9 treatment (6 h) | anti-apoptotic protein Bcl-2 expression (Western blot) (LNCaP cells): decreased after treatment with 9 (6, 12 and 24 h); also recorded: significant decrease in the levels of anti-apoptotic Bcl-2 protein | caspase-3 cleavage / activation (Western blot) (LNCaP cells): induced degradation of caspase-3 into its cleaved fragments after all time points (6, 12 and 24 h); also recorded: degradation of procaspase-3 into cleaved fragments was detected after all time points | p21Waf1/Cip1 expression (Western blot) (LNCaP cells): decreased level of p21^Waf1/Cip1 after 12 h | p27Kip1 expression (Western blot) (LNCaP cells): increased level of p27^Kip1 after 24 h | p53 expression (Western blot) (LNCaP cells): decreased expression of p53 after brassinosteroids 9 or 6 treatment was found after 12 and 24 h | pro-apoptotic Bax level (Western blot) (LNCaP cells): increased level of pro-apoptotic Bax after the 9 treatment after 6 and 12 h; also recorded: increase in the pro-apoptotic Bax protein | Cell cycle distribution S (MCF-7 cells): 11% | Apoptosis subG1 fraction (MCF-7 cells): 15% | Cell cycle distribution G2/M (MCF-7 cells): 9% | Cell cycle distribution G1 (MCF-7 cells): 80%

CC(C)[C@@H](C)[C@@H](O)[C@H](O)[C@@H](C)[C@H]1CC[C@H]2[C@@H]3COC(=O)[C@H]4C[C@H](O)[C@H](O)C[C@]4(C)[C@H]3CC[C@]12C [Brassinosteroid 6, 24-Epibrassinolide]
IC50 [1]: > 50 µM | Cell cycle distribution S (DU-145 cells): 8% | Apoptosis subG1 fraction (DU-145 cells): 24% | Cell cycle distribution G2/M (DU-145 cells): 39% | Cell cycle distribution G1 (DU-145 cells): 53% | cyclin D1 expression (Western blot) (MDA-MB-468 cells; 6/12/24 h vs untreated control): decreased expression of cyclin D1 | expression of apoptosis related proteins (Bcl-2 family, caspase-3 activation) (Western blot) (MDA-MB-468 cells): no significant changes in expression of Bcl-2 family protein nor caspase-3 activation | p21Waf1/Cip1 expression (Western blot) (MDA-MB-468 cells): significantly increased after 12 and 24 h | p27Kip1 expression (Western blot) (MDA-MB-468 cells): decreased in all time points | retinoblastoma protein (Rb) expression, phosphorylated and dephosphorylated forms (Western blot) (MDA-MB-468 cells): decreased | MDM-2 expression (Western blot) (LNCaP cells): unchanged | anti-apoptotic protein Bcl-2 expression (Western blot) (LNCaP cells): decreased after treatment with 9 (6, 12 and 24 h) or 6 (6 and 24 h) | caspase-3 cleavage / activation (Western blot) (LNCaP cells): activation of caspase-3 after 24 h; also recorded: degradation of procaspase-3 into cleaved fragments was detected after all time points of treatment with 9 and after 24 h treatment with 6 | p21Waf1/Cip1 expression (Western blot) (LNCaP cells): decreased expression of p21^Waf1/Cip1 after 6 and 24 h | p27Kip1 expression (Western blot) (LNCaP cells): decreased expression of p21^Waf1/Cip1 after 6 and 24 h treatment and p27^Kip1 protein expression after 6 and 12 h | p53 expression (Western blot) (LNCaP cells): decreased expression of p53 after brassinosteroids 9 or 6 treatment was found after 12 and 24 h | Cell cycle distribution S (MCF-7 cells): 7% | Apoptosis subG1 fraction (MCF-7 cells): 13% | Cell cycle distribution G2/M (MCF-7 cells): 12% | Cell cycle distribution G1 (MCF-7 cells): 81%
